Data set [1] has as its system VRE (Vancomycin Resistant Enterococcus faeclum).
Procedure: (§1) HHC was also tested for effectiveness against various bacterial isolates obtained from human subjects.
Data set [2] concerns MRSA (Methicillin Resistant Staphylococcus aureus). Kind of data set: Patient isolates evaluated for antibiotic sensitivity, MRSA.
Procedure: as §1
Data set [3] deals with OxaRSA (Oxacillin Resistant Staphylococcus aureus). Kind of data set: Patient isolates evaluated for antibiotic sensitivity, OxaRSA. The note with it: patient G, OxaRSA.
Procedure: as §1
Data set [4] deals with Hela cells. Particulars: Mannering et al.; cited from earlier work.
Data set [5] deals with adriamycin- and vinblastin-resistant CEM cells. Particulars: Mannering et al.; cited from earlier work.
For data set [6], the system named is CEM leukemia cells. Particulars: Mannering et al.; cited from earlier work.
The subject of data set [7] is TB. The note with it: currently utilized anti-TB drugs, for comparison; cited from earlier work.
The conditions of data set [8]: Carson, 1951; cited from earlier work.
Data set [9] relates to Lactobacilli. Particulars: U.S. Pat. No. 5,082,975; cited from earlier work.
For data set [10], the system named is Listeria monocytogenes. The note with it: U.S. Pat. Nos. 5,286,506; 5,455,038; cited from earlier work.

Values after ≈ are worked out from the molar mass of the structure shown. Where two headings read alike, the source gives them in different places. *1 amine or outer side, *2 acyl side, *3 side chain or, on linkers, in order; H or OH if unused. Where a SMILES comes first, the peptide text is derived from it. Bridges are numbered along the chain shown (N, C = ends). [ ]: non-standard residue; d: D form. The star is where a group is joined. X1 = NC1=N[C@@H]([C@H](N[*:1])C(=O)[*:2])C[C@H](O)N1; ΔAla(Z-3-ureido) = NC(=O)N/C=C(\N)C(=O)O; β3hOrn = NCCC[C@H](N)CC(=O)*; Dap = NC[C@H](N)C(=O)O

Regarding `CC1(C)S[C@@H]2[C@H](NC(=O)[C@H](N)c3ccccc3)C(=O)N2[C@H]1C(=O)O` [Amp, Ampicillin], the antibiotic sensitivity entry in [1] (patient A, R > 8 μg/ml) is “R (R > 8 μg/ml)”; in [1] (patient B, R > 8 μg/ml), “R (R > 8 μg/ml)”; in data set [1] (patient C, R > 8 μg/ml), “R (R > 8 μg/ml)”; in data set [2] (patient F, R > 8 μg/ml), “R (R > 8 μg/ml)”.
`CC(=O)OCC1=C(C(=O)O)N2C(=O)[C@@H](NC(=O)Cc3cccs3)[C@H]2SC1` [Ceph, Cephalothin]: the antibiotic sensitivity result was “R (R > 32 μg/ml)” in data set [2] (patient D, R > 32 μg/ml); “R (R > 32 μg/ml)” in data set [2] (patient E, R > 32 μg/ml); “R (R > 32 μg/ml)” in data set [3] (R > 32 μg/ml).
In the case of `O=C(N[C@H](CO)[C@H](O)c1ccc([N+](=O)[O-])cc1)C(Cl)Cl` [Chlor, Chloramphenicol], the antibiotic sensitivity result is listed as “S” in data set [1] (patient A, threshold not given); “S” in data set [1] (patient B, threshold not given); “S” in data set [1] (patient C, threshold not given).
Regarding `O=C(O)c1cn(C2CC2)c2cc(N3CCNCC3)c(F)cc2c1=O` [Cipro, Ciprofloxacin], the antibiotic sensitivity entry in [1] (patient A, R > 2 μg/ml) was “R (R > 2 μg/ml)”; in [1] (patient B, R > 2 μg/ml) it was “R (R > 2 μg/ml)”; in data set [1] (patient C, R > 2 μg/ml) it was “R (R > 2 μg/ml)”; in data set [2] (patient D, R > 2 μg/ml) it was “R (R > 2 μg/ml)”; in data set [2] (patient E, R > 2 μg/ml), “R (R > 2 μg/ml)”; in data set [2] (patient F, R > 2 μg/ml), “R (R > 2 μg/ml)”. Moreover, the antibiotic sensitivity entry in data set [3] (R > 2 μg/ml) is given as “R (R > 2 μg/ml)”.
Turning to `CCC[C@@H]1C[C@@H](C(=O)N[C@@H]([C@H]2O[C@H](SC)[C@H](O)[C@@H](O)[C@H]2O)[C@H](C)Cl)N(C)C1` [Clin, Clindamycin], the antibiotic sensitivity entry in data set [2] (patient D, R > 8 μg/ml) is given as “R (R > 8 μg/ml)”; in data set [2] (patient E, R > 8 μg/ml), “R (R > 8 μg/ml)”; in data set [3] (R > 8 μg/ml), “R (R > 8 μg/ml)”.
Take `CC(C)=CCC1=C(O)C(C(=O)C(C)C)=C(O)C(CC=C(C)C)(CC=C(C)C)C1=O` [Colupulone]: the “activity against Hela cells” value in data set [4] is reported as “active against Hela cells”. In addition, in data set [5], the “activity against resistant CEM cells” value is “active”. Further, in data set [6], the “activity against CEM leukemia cells” value was “active”.
The MIC is the least concentration at which growth counts as inhibited. Turning to `N[C@@H]1CON=C1O` [Cycloserine], the MIC in data set [7] is 147 to 195 µM.
For the compound `CC[C@H]1OC(=O)[C@H](C)[C@@H](O[C@H]2C[C@@](C)(OC)[C@@H](O)[C@H](C)O2)[C@H](C)[C@@H](O[C@@H]2O[C@H](C)C[C@H](N(C)C)[C@H]2O)[C@](C)(O)C[C@@H](C)C(=O)[C@H](C)[C@@H](O)[C@]1(C)O` [Eryth, Erythromycin], the antibiotic sensitivity entry in [2] (patient D, R > 8 μg/ml) was “R (R > 8 μg/ml)”; in [2] (patient E, R > 8 μg/ml), “R (R > 8 μg/ml)”; in [3] (R > 8 μg/ml), “R (R > 8 μg/ml)”.
With `CC[C@@H](CO)NCCN[C@@H](CC)CO` [Ethambutol], the minimal inhibitory concentration (MIC) in data set [7] was 5 to 25 µM.
In the case of `CCc1cc(C(N)=S)ccn1` [Ethionamide], the minimal inhibitory concentration (MIC) in data set [7] is 15 µM (≈ 2.49 µg/mL).
In the case of `NNC(=O)c1ccncc1` [Isoniazid], in [7], the MIC was 1.5 µM (≈ 0.206 µg/mL).
With `Cc1onc(-c2ccccc2)c1C(=O)N[C@@H]1C(=O)N2[C@@H]1SC(C)(C)[C@@H]2C(=O)O` [Oxa, Oxacillin], the antibiotic sensitivity result in data set [2] (patient D, R > 8 μg/ml) is “R (R > 8 μg/ml)”; in data set [2] (patient E, R > 8 μg/ml), “R (R > 8 μg/ml)”; in data set [3] (R > 8 μg/ml) it was “R (R > 8 μg/ml)”.
On to `NC(=O)c1cnccn1` [Pyrazinamide], for which the minimal inhibitory concentration (MIC) in data set [7] is 122 µM (≈ 15 µg/mL).
As to `CO[C@H]1/C=C/O[C@@]2(C)Oc3c(C)c(O)c4c(O)c(c(/C=N/N5CCN(C)CC5)c(O)c4c3C2=O)NC(=O)/C(C)=C\C=C\[C@H](C)[C@H](O)[C@@H](C)[C@@H](O)[C@@H](C)[C@H](OC(C)=O)[C@@H]1C` [Rif, Rifampin], the antibiotic sensitivity result in data set [1] (patient B, threshold not given) was “S”; in [2] (patient F, threshold not given), “S”.
For the compound `[H]/N=C(/N)N[C@H]1[C@H](O)[C@@H](O)[C@H](O[C@@H]2O[C@@H](C)[C@](O)(C=O)[C@H]2O[C@@H]2O[C@@H](CO)[C@H](O)[C@@H](O)[C@@H]2NC)[C@@H](N/C(N)=N\[H])[C@@H]1O` [Strep, Streptomycin], in data set [1] (patient B, R > 2000 μg/ml), the antibiotic sensitivity entry is listed as “R (R > 2000 μg/ml)”. Besides, in [7], the MIC is 1.8 to 17 µM.
For `CN(C)[C@@H]1C(=O)C(C(N)=O)=C(O)[C@@]2(O)C(=O)C3=C(O)c4c(O)cccc4[C@@](C)(O)[C@H]3C[C@@H]12` [Tetra, Tetracycline], the antibiotic sensitivity result in data set [1] (patient A, threshold not given) is on record as “S”; in [1] (patient B, threshold not given), “S”.
For `CN[C@H](CC(C)C)C(=O)N[C@H]1C(=O)N[C@@H](CC(N)=O)C(=O)N[C@H]2C(=O)N[C@H]3C(=O)N[C@H](C(=O)N[C@H](C(=O)O)c4cc(O)cc(O)c4-c4cc3ccc4O)[C@H](O)c3ccc(c(Cl)c3)Oc3cc2cc(c3O[C@@H]2O[C@H](CO)[C@@H](O)[C@H](O)[C@H]2O[C@H]2C[C@](C)(N)[C@H](O)[C@H](C)O2)Oc2ccc(cc2Cl)[C@H]1O` [Vanco, Vancomycin], the antibiotic sensitivity entry is on record as “R (R > 16 μg/ml)” in [1] (patient A, R > 16 μg/ml); “R (R > 16 μg/ml)” in data set [1] (patient B, R > 16 μg/ml); “S” in [1] (patient C, R > 16 μg/ml); “S” in data set [2] (patient D, R > 16 μg/ml); “S” in [2] (patient E, R > 16 μg/ml); “S” in data set [3] (R > 16 μg/ml).
Turning to `NCCC[C@H](N)CC(=O)N[C@H]1CNC(=O)[C@H]([C@H]2C[C@H](O)NC(N)=N2)NC(=O)/C(=C/NC(N)=O)NC(=O)[C@H](CO)NC(=O)[C@H](CO)NC1=O` [Viomycin] (β3hOrn-[Dap]SS[ΔAla(Z-3-ureido)][X1]; lactam 1-C), the MIC in data set [7] was 1.5 to 15 µM.
Take `CC(C)CCC1=C(O)C(C(=O)CC(C)C)=C(O)C(CCC(C)C)(CCC(C)C)C1=O` [hexahydrolupulone]: in data set [8], the “stability relative to non-hydrogenated parent” value is reported as “more stable than lupulone”. The “growth inhibition of certain Lactobacilli” value in data set [9] is “inhibits the growth of certain Lactobacilli”.
Take `CC(C)CCC(=O)C1(O)C(O)=C(C(=O)CC(C)C)C(=O)C1CCC(C)C` (stereo not shown) [tetrahydroisohumulone, reference compound]: the “growth inhibition of food pathogens” value in data set [10] is on record as “can inhibit the growth of food pathogens, such as Listeria monocytogenes”.
For Gentamicin, in [1] (patient B, threshold not given), the antibiotic sensitivity result is listed as “S”.
As for Peniciliin, the antibiotic sensitivity entry in data set [1] (patient A, R > 8 μg/ml) was “R (R > 8 μg/ml)”; in [1] (patient B, R > 8 μg/ml) it was “R (R > 8 μg/ml)”; in data set [1] (patient C, R > 8 μg/ml), “R (R > 8 μg/ml)”; in [2] (patient D, R > 8 μg/ml), “R (R > 8 μg/ml)”; in [2] (patient E, R > 8 μg/ml), “R (R > 8 μg/ml)”; in [2] (patient F, R > 8 μg/ml) it was “R (R > 8 μg/ml)”. For the same compound, the antibiotic sensitivity result in [3] (R > 8 μg/ml) is reported as “R (R > 8 μg/ml)”.
